The values that follow are results of earlier work, collected in patent US20050197342A1, “Substituted nitrogen-containing six-membered amino-heterocycles as vanilloid-1 receptor antagonists for treating pain” (priority 2003, published 2005).

The structures appear in SMILES notation.

The data set has as its target VR1 (Rattus norvegicus, UniProt O35433). The note with it: Wahl et al., Mol. Pharmacol., 59:9, 2001.

Sequence of VR1 (O35433 whole entry): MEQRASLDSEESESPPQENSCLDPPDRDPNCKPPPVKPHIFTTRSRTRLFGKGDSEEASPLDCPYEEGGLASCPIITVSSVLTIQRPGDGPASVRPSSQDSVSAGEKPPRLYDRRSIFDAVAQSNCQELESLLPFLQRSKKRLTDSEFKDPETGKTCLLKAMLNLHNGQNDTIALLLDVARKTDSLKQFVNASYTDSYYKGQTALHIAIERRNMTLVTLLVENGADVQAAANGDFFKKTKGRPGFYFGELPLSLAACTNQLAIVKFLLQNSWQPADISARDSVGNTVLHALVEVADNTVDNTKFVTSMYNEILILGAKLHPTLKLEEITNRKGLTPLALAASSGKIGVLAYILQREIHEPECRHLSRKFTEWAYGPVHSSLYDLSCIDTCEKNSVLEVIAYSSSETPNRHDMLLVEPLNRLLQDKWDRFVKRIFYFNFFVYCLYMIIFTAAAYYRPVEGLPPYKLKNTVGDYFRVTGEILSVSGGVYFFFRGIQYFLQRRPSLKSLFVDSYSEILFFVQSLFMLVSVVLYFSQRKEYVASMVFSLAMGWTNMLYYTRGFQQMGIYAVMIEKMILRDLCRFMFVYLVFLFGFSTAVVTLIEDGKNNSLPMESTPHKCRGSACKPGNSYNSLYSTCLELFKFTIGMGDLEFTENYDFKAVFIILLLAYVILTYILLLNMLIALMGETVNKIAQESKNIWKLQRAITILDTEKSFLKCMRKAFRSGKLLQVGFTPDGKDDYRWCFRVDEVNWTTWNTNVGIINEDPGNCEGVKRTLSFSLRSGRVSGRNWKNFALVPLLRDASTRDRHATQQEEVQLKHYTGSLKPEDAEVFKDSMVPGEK

With `C=C(C)[C@]12C[C@@H](C)[C@@]34O[C@](Cc5ccccc5)(O[C@@H]1[C@@H]3C=C(COC(=O)Cc1cc(I)c(O)c(OC)c1)C[C@]1(O)C(=O)C(C)=C[C@@H]41)O2` [Iodo-resiniferatoxin], the “antagonist of VR1” value is listed as “nanomolar antagonist”.
